Values joined by “and” are separate entries in the source; they are usually repeats but may differ in a detail not shown here. Identical values can stand only once.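 Exposure lasted 48 hours, with cells grown in 96-well plates and compounds tested at five concentrations. Here, GI50 denotes the concentration required for 50% inhibition of growth. At the TGI there is no net growth.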

Holding throughout (assay): inhibition of tumour cell growth, NCI panel, 48 h
Assay [1] has as its system A498 renal.
Assay [2] has as its system A549 NSCLC.
Assay [3] deals with KM12 colon.
The test system of assay [4] is M14 melanoma.
The test system of assay [5] is MALME-3M melanoma.
The subject of assay [6] is MOLT-4 leukemia.
For assay [7], the system named is PC-3 prostate.
The test system of assay [8] is SF-295 CNS.
Assay [9] relates to SW-620 colon.
Assay [10] has as its system T-47D breast.

Take `Nc1c(C(=O)Nc2cccc(C(F)(F)F)c2)sc2nc3c(cc12)CCCCCC3`: the GI50 in [1] is 1.39 µM; in assay [2], 1.77 µM; in assay [3] it was 4.08 µM; in assay [4], 3.4 µM; in assay [5], 3.54 µM; in assay [6], 11.1 µM. The GI50 in [7] was 4.31 µM; in assay [8] it was 1.58 µM; in [9], 3.75 µM; in assay [10], 1.35 µM. Besides, the TGI in assay [1] worked out at 5.51 µM; in [2] it was 5.08 µM; in assay [3], 23.5 µM; in assay [4], 18 µM; in assay [5], 11.3 µM; in [6], 35.1 µM. In addition, the TGI is 32.7 µM in [7], 3.6 µM in [8], 21.2 µM in [9] and 6.2 µM in [10].

Take `O=C1OCC2=C1C(c1cccc(Cl)c1)c1cc3c(cc1N2CCO)CCC3` (centres undefined): the GI50 was 0.0215 µM in assay [1]; 0.0477 µM in assay [2]; 0.0402 µM in assay [3]; 0.0366 µM in [4]; 0.0494 µM in assay [5]; 0.192 µM in [6]. For the same molecule, the GI50 in assay [7] is 0.0398 µM; in [8], 0.0301 µM; in assay [9], 0.0369 µM; in assay [10], 0.0414 µM. Also, the TGI in assay [1] was 0.0947 µM; in [2], 6.45 µM; in [3], 4.05 µM; in assay [4], 4.46 µM; in assay [5], 22.7 µM; in assay [6] it was 20.3 µM. Besides, the TGI amounted to 11.8 µM in [7], 11.9 µM in [8], 16.4 µM in assay [9] and 23.2 µM in assay [10].

In the case of `COc1ncc(-c2ccc3nccc(C#CCCCCC(=O)NO)c3c2)cc1NS(=O)(=O)c1ccc(F)cc1F`, the GI50 in assay [1] was 0.0303 µM; in [2], 0.104 µM; in assay [3], 0.18 µM; in assay [4] it was 0.148 µM; in assay [5], 0.0604 µM; in assay [6] it was 0.0622 µM. Also, the GI50 was 0.0545 µM in assay [7], 0.0701 µM in assay [8] and 0.158 µM in assay [9]. In addition, the TGI in [1] was 0.0962 µM; in [2] it was 3.17 µM; in assay [3], 12.1 µM; in assay [4], 3.62 µM; in [5], 0.27 µM; in assay [6], 1.42 µM. Further, the TGI in assay [7] stood at 4.8 µM; in [8] it was 2.03 µM; in assay [9], 3.9 µM; in assay [10] it was 0.055 µM.

For the molecule `Cc1c(Cl)c(C)c(Cl)c(O)c1Cl`, the TGI in assay [1] is 68.7 µM; in assay [2], 71.9 µM; in [3], above 100 µM; in assay [4], 49.1 µM; in [5], 54.3 µM; in assay [6] it was 54.5 µM. Further, the TGI in assay [7] is 63.9 µM; in assay [8], above 100 µM; in [9] it was above 100 µM; in assay [10], above 100 µM.

As for `COC(=O)Nc1nc2ccc(C(=O)c3ccc(F)cc3)cc2[nH]1`, the GI50 in assay [1] is 0.403 µM; in [2] it was 0.468 µM; in assay [4], 0.173 µM; in [5] it was 0.193 µM; in assay [7] it was 0.226 µM; in assay [8] it was 0.094 µM. Besides, the GI50 was 0.0922 µM in assay [9] and 0.338 µM in assay [10]. For the same molecule, the TGI is 4.47 µM in assay [1]; above 100 µM in assay [2]; above 100 µM in assay [4]; 26.9 µM in assay [5]; above 100 µM in assay [7]; 0.966 µM in assay [8]. The TGI in assay [9] and in [10] was above 100 µM in each case.

Take `CN1CCN(CCC=C2c3ccccc3Sc3ccc(S(=O)(=O)N(C)C)cc32)CC1`: the GI50 in [1] was 2.19 µM and 3.51 µM; in assay [2], 5.69 µM and 9.71 µM; in assay [3], 3.96 µM and 4.68 µM; in [4], 1.97 µM and 2.1 µM; in [5], 1.73 µM and 2.54 µM; in [6] it was 2.91 µM and 2.22 µM. Moreover, the GI50 in assay [7] was 3.7 µM and 7.99 µM; in assay [9], 3.58 µM and 2.85 µM; in [10], 1.52 µM and 3.85 µM. Further, the TGI was 13.2 µM and 17 µM in assay [1]; > 100 µM and 31.5 µM in [2]; 24.3 µM and 16.4 µM in assay [3]; 3.63 µM and 4.57 µM in assay [4]; 3.5 µM and 9.72 µM in assay [5]; 7.95 µM and 7.1 µM in assay [6]. Besides, the TGI in [7] was 32.5 µM and > 43.1 µM; in assay [9], 19.9 µM and 8.62 µM; in assay [10], 3.42 µM and 16.7 µM.

Take `CC/C(=C(/c1ccc(OCCN(C)C)cc1)c1ccc(OC(=O)CCCCCCCCC(=O)c2c(C)[nH]c(/C=C3\N=C(c4ccc[nH]4)C=C3OC)c2C)cc1)c1ccccc1`: the GI50 is 15 µM in assay [1]; 4.13 µM in assay [2]; 5.25 µM in [3]; 2.15 µM in [4]; 40.7 µM in assay [5]; 5.13 µM in assay [6]. Besides, the values for the GI50 in [7], in [9] and in assay [10] were 5.86 µM, 3.72 µM and 3.56 µM, respectively. The TGI in assay [1] was 72 µM; in assay [2], above 100 µM; in [3], above 100 µM; in assay [4] it was 4.48 µM; in assay [5] it was above 100 µM; in assay [6], above 100 µM. The values for the TGI in assay [7], in assay [9] and in [10] were above 100 µM, 14 µM and above 100 µM, respectively.

Turning to `CN(C)C1CN(C(=O)c2cc(-c3ccc4ncnc(N5CCc6cc(F)c(Cl)cc65)c4c3)cnc2N)C1`, the GI50 is 0.254 µM in assay [1]; 0.486 µM in assay [2]; 1.13 µM in assay [3]; 0.886 µM in assay [4]; 0.453 µM in assay [5]; 0.398 µM in [7]. In addition, the GI50 is 1.18 µM in assay [8], 1.48 µM in [9] and 0.299 µM in assay [10]. For the same molecule, the TGI was 0.832 µM in assay [1]; above 100 µM in assay [2]; above 100 µM in assay [3]; above 100 µM in [4]; 3.66 µM in assay [5]; above 23 µM in assay [7]. Moreover, the TGI was above 100 µM in [8], above 100 µM in [9] and 5.52 µM in [10].
